≈ marks a conversion by molar mass, not a printed value. Where a name gives a salt, the structure may show the parent alone. Read-outs that look alike come from different tables or passages of the source.

A word on the solubility: it is how much of the substance goes into solution per volume. A lower solubility goes with little dissolved substance. As usually defined, the log P is a log measure of how a compound divides between an organic and an aqueous phase.

Data set [1] in a line: In-vitro cleavage of allopurinol derivatives to allopurinol in pH 7.4 buffer at 37° C. It counts as physicochemical. Particulars: read-out: Half-time (t0.5) of the conversion to allopurinol, pH 7.4 buffer (converted). Here is the method: (§1) In-vitro cleavage of allopurinol derivatives
(§2) Solutions of various derivatives of allopurinol in aqueous buffer solutions or 80% human plasma solutions (pH 7.4) were kept at 37° C. The initial concentration of the derivatives was in the range 0.01-0.1 mg/ml. At various times an aliquot of the solutions was withdrawn and analyzed by HPLC for remaining derivative as well as for allopurinol. For the plasma solutions the aliquot withdrawn was deproteinized with ethanol or trichloroacetic acid and after centrifugation, the clear supernatant was injected on HPLC.
(§3) An HPLC method was used for the determination of allopurinol and its derivatives. In this method a reversed-phase LiChrosorb RP-8 column (250×4 mm) was eluated at ambient temperature with mixtures of methanol and 0.01M acetate buffer pH 4.5 or methanol and 0.03M phosphate buffer pH 7.0. The composition of the eluant was adjusted for each compound in order to provide an appropriate retention time. The flow rate was 1.2 ml/min and the column effluent was monitored spectrophotometrically at 252 nm or 274 nm. Quantitation of the compounds was done by measurement of peak heights.
(§4) The half-times of allopurinol formation from various derivatives at physiological conditions of pH and temperature are given in Table 2. It can be seen that in the presence of human plasma the rate of degradation is strongly accelerated, thus showing the susceptibility of the derivatives to undergo conversion into the parent active compound at conditions simiar to those prevailing in vivo.

Data set [2] can be described thus: In-vitro cleavage of allopurinol derivatives to allopurinol in 80% human plasma (pH 7.4) at 37° C. In kind it is in vitro ADME. Particulars: 80% plasma, pH 7.4, 37° C, read-out: Half-time (t0.5) of the conversion to allopurinol, 80% human plasma (converted). The method, then:
as §1, §2, §3, §4

The nature of a further data set: physchem. The conditions noted are these: water. The method, then:
(§5) The water-solubility and lipophilicity of the allopurinol drugs
(§6) The apparent partition coefficients (P) for some allopurinol derivatives and allopurinol were measured using the widely used 1-octanol-water system. Similarly, the solubility of the derivatives in water or aqueous buffer solutions was determined.

The procedure of data set [3]:
as §5, §6

As to `CC(N)C(=O)OCn1ncc2c(=O)[nH]cnc21` (racemic) [1-(DL-Alanyloxymethyl)allopurinol (hydrobromide)], the results for the half-life in data set [1] and in data set [2] were 15 min and 11 min, respectively. Moreover, in “physchem”, the solubility was > 500000 µg/mL.
For the compound `CCN(CC)C(C)C(=O)OCn1ncc2c(=O)[nH]cnc21` (racemic) [1-(DL-N,N-Diethylalanyloxymethyl)allopurinol (hydrochloride)], the half-life is 21 min in data set [1] and 17 min in data set [2]. The solubility in “physchem” was > 400000 µg/mL. In data set [3] (pH 8), the “log P” value is 0.72.
On to `NC(Cc1ccccc1)C(=O)OCn1ncc2c(=O)[nH]cnc21` (racemic) [1-(DL-Phenylalanyloxymethyl)allopurinol, 1-(DL-Phenylalanyloxymethyl)allopurinol (hydrobromide)], for which the half-life in data set [1] was 40 min; in data set [2] it was 9 min. Moreover, the solubility in the data set “physchem” was > 200000 µg/mL. The “log P” value in data set [3] (pH 8) was determined as 0.40.
Consider `NC(C(=O)OCn1ncc2c(=O)[nH]cnc21)c1ccccc1` (racemic) [1-(DL-Phenylglycyloxymethyl)allopurinol, 1-(DL-Phenylglycyloxymethyl)allopurinol (hydrobromide)], for which the half-life in data set [1] is 20 min; in data set [2], 3 min. Moreover, the solubility in “physchem” is > 200000 µg/mL. For the same compound, the “log P” value in data set [3] (pH 8) is given as -0.15.
Regarding `CC(N)C(=O)OCn1cc2c(=O)n(COC(=O)C(C)N)cnc2n1` (racemic) [2,5-bis(DL-Alanyloxymethyl)allopurinol, 2,5-bis-(DL-Alanyloxymethyl)allopurinol (dihydrobromide)], the half-life in data set [1] and in data set [2] was < 1 min each time.
`CCCC(=O)OCn1cnc2c(cnn2COC(=O)CCC)c1=O` [1,5-bis(Butyryloxymethyl)allopurinol]: the results for the half-life in data set [1] and in data set [2] were 1500 min and 22 min, respectively. The amount in solution in “physchem” (solubility) came to 50 µg/mL (≈ 149 µM). Also, the log partition coefficient (log P) in data set [3] is given as 1.82.
In turn, `CC(C)(C)C(=O)OCn1cnc2c(cnn2COC(=O)C(C)(C)C)c1=O` [1,5-bis(Pivaloyloxymethyl)allopurinol] yielded a solubility in “physchem” of 20 µg/mL (≈ 54.9 µM). Besides, the “log P” value in data set [3] worked out at 2.50.
Regarding `CC(=O)OCn1ncc2c(O)ncnc21` [1-(Acetoxymethyl)allopurinol, 1-(Acetyloxymethyl)allopurinol], the half-life is 5220 min in data set [1] and 31 min in data set [2]. In “physchem”, this compound gave a solubility of 580 µg/mL (≈ 2790 µM). In addition, the “log P” value in data set [3] is on record as -0.35.
As to `CC(=O)n1ncc2c(O)ncnc21` [1-(Acetyl)allopurinol], the half-life in data set [1] is 26 min; in data set [2], 6 min. This compound also registered a solubility in the data set “physchem” of 750 µg/mL (≈ 4210 µM). In addition, the “log P” value in data set [3] is reported as -0.35.
For the compound `O=C(c1ccccc1)n1ncc2c(=O)[nH]cnc21` [1-(Benzoyl)allopurinol], the results for the half-life in data set [1] and in data set [2] were 20 min and 4 min, respectively. The “log P” value in data set [3] was 1.20.
For `O=C(OCn1ncc2c(=O)[nH]cnc21)c1ccccc1` [1-(Benzoyloxymethyl)allopurinol], in that order: 14200 min, 4 min and 1.50.
For the compound `CCCC(=O)n1ncc2c(O)ncnc21` [1-(Butyryl)allopurinol], the results for the half-life in data set [1] and in data set [2] were 36 min and 2.5 min, respectively. For the same compound, the concentration in solution in “physchem” (solubility) came to 110 µg/mL (≈ 533 µM). The “log P” value in data set [3] is listed as 0.85.
Consider `CCCC(=O)OCn1ncc2c(=O)[nH]cnc21` [1-(Butyryloxymethyl)allopurinol], for which the half-life in data set [1] was 11600 min; in data set [2] it was 9 min. The “log P” value in data set [3] came to 0.60.
In the case of `O=C(CCl)n1ncc2c(=O)[nH]cnc21` [1-(Chloroacetyl)allopurinol], the half-life in data set [1] and in data set [2] was < 1 min in each case.
In the case of `CCOC(=O)OCn1ncc2c(O)ncnc21` [1-(Ethoxycarbonyloxymethyl)allopurinol], the half-life in data set [2] was 20 min. Moreover, in data set [3], the “log P” value is reported as 0.21.
Take `NCC(=O)OCn1ncc2c(=O)[nH]cnc21` [1-(Glycyloxymethyl)allopurinol, 1-(Glycyloxymethyl)allopurinol (hydrochloride)]: the half-life in data set [1] is 26 min; in data set [2] it was 9 min. For the same compound, the solubility in “physchem” is > 500000 µg/mL.
Regarding `CC(C)C[C@H](N)C(=O)OCn1ncc2c(=O)[nH]cnc21` [1-(L-Leucyloxymethyl)allopurinol, 1-(L-Leucyloxymethyl)allopurinol (hydrobromide)], the values for the half-life in data set [1] and in data set [2] were 17 min and 6 min, respectively. The solubility in the data set “physchem” was > 400000 µg/mL. Further, the “log P” value in data set [3] (pH 8) was determined as 0.19.
In the case of `CN(C)CC(=O)n1ncc2c(=O)[nH]cnc21` [1-(N,N--Dimethylglycyl)allopurinol, 1-(N,N-Dimethylglycyl)allopurinol (hydrochloride)], the results for the half-life in data set [1] and in data set [2] were 1.5 min and < 1 min, respectively. The solubility in the data set “physchem” is > 200000 µg/mL.
As for `CN(C)CC(=O)OCn1ncc2c(=O)[nH]cnc21` [1-(N,N-Dimethylglycyloxymethyl)allopurinol (hydrochloride)], the half-life is 72 min in data set [1] and 7 min in data set [2]. For the same compound, the solubility in the data set “physchem” is > 500000 µg/mL. In data set [3] (pH 8), the “log P” value was -0.49.
Turning to `CCCN(CCC)CC(=O)OCn1ncc2c(=O)[nH]cnc21` [1-(N,N-Dipropylglycyloxymethyl)allopurinol (hydrochloride)], the half-life in data set [1] was 50 min; in data set [2] it was 12 min. Further, in “physchem”, the solubility is > 400000 µg/mL. Further, in data set [3] (pH 8), the “log P” value worked out at 1.27.
Regarding `CCCCNC(=O)n1ncc2c(=O)[nH]cnc21` [1-(N--Butylcarbamoyl)allopurinol, 1-(N-Butylcarbamoyl)allopurinol], in data set [2], the half-life is 90 min.
On to `O=C(OCn1ncc2c(=O)[nH]cnc21)c1cccnc1` [1-(Nicotinoyloxymethyl)allopurinol], for which the half-life is 1560 min in data set [1] and 21 min in data set [2]. In “physchem”, the concentration in solution (solubility) was 93 µg/mL (≈ 343 µM). Besides, in data set [3], the “log P” value stood at 0.27.
For `CC(C)(C)C(=O)OCn1ncc2c(O)ncnc21` [1-(Pivaloyloxymethyl)allopurinol], in the data set “physchem”, the concentration in solution (solubility) came to 520 µg/mL (≈ 2080 µM). Further, the “log P” value in data set [3] was 1.07.
`CCC(=O)n1ncc2c(O)ncnc21` [1-(Propionyl)allopurinol]: the figures for the half-life in data set [1] and in data set [2] were 30 min and 4 min, respectively. In the data set “physchem”, this compound returned a solubility of 300 µg/mL (≈ 1560 µM). Also, the “log P” value in data set [3] is recorded as 0.30.
For `CN(C)CCCC(=O)OCn1ncc2c(=O)[nH]cnc21` [1-[4-(N,N-Dimethylamino)butyryloxymethyl]allopurinol (hydrochloride)], the half-life is 145 min in data set [1] and 140 min in data set [2].
Turning to `CC(=O)OCn1cc2c(=O)n(COC(C)=O)cnc2n1` [2,5-bis(Acetoxymethyl)allopurinol], the half-life is 900 min in data set [1] and 51 min in data set [2]. Further, in “physchem”, the solubility came out at 2900 µg/mL (≈ 10300 µM).
For `CC(C)(C)C(=O)OCn1cc2c(=O)n(COC(=O)C(C)(C)C)cnc2n1` [2,5-bis(Pivaloyloxymethyl)allopurinol], the “log P” value in data set [3] was 2.34.
`CC(C)(C)C(=O)OCn1cc2c(=O)[nH]cnc2n1` [2-(Pivaloyloxymethyl)allopurinol, 2-(pivaloyloxymethyl)allopurinol] had a solubility in the data set “physchem” of 1700 µg/mL (≈ 6790 µM). Further, the “log P” value in data set [3] worked out at 0.79.

For the origin of these results see patent US4694006A, “Acyl- or acyloxymethyl-allopurinol prodrugs” (priority 1983, dated 1987).
